Results published in patent US8697661B2, “Use of spinosyns and spinosyn compositions against herpesviridae viral infections” (priority 2009, dated 2014).

How the values were obtained:
[1] = in vitro; conditions: mouse
[2] = system: Leishmania donovati MON-2 amastigotes; assay: In vitro test against Leishmania amastigotes in J774 macrophages; conditions: Leishmania, J774, read-out: Amastigotes IC50
[3] = system: macrophage mice cell type J774; conditions: J774 CC50 over amastigote IC50
[4] = system: Leishmania donovati MON-2 promastigotes; assay: In vitro test against Leishmania promastigotes; conditions: Leishmania, read-out: Promastigotes IC50

Compound | CC50 [1] | IC50 [2] | Selectivity Index CC50/IC50ama [3] | IC50 [4]
CCCCCCCCCCCCCCCCOP(=O)([O-])OCC[N+](C)(C)C [Miltefosine] | 32.8 ± 5.1 µM | 0.84 ± 0.04 µM | 39.04 | 0.87 ± 0.04 µM
NC[C@@H]1O[C@H](O[C@H]2[C@@H](O)[C@H](O[C@@H]3[C@@H](O)[C@H](N)C[C@H](N)[C@H]3O[C@H]3O[C@H](CO)[C@@H](O)[C@H](O)[C@H]3N)O[C@@H]2CO)[C@H](N)[C@@H](O)[C@@H]1O [Aminosidine] | 448 ± 8.6 µM | 12.8 ± 4 µM | 34.96 | 5.6 ± 0.6 µM
